Assay results published in article PMC8292346, “Dysfunction of the key ferroptosis-surveilling systems hypersensitizes mice to tubular necrosis during acute kidney injury” (Nature Communications, 2021).
“And” between values parts separate entries of the source, which are not always exact repeats. Equal values may be shown once. Read-outs that look alike come from different tables or passages of the source.

Assay: Pharmacokinetic analysis of Nec-1f in mice (tissue PK)
Type: in vivo, C57BL/6 mice
Details: for concentration at 120 min: sample collection 120 min; for concentration at 5 min: sample collection 5 min; for concentration at 15 min: sample collection 15 min; for concentration at 60 min: sample collection 60 min
[1] = male, C57BL/6, mouse, liver, intraperitoneal, liver, individual mice, read-out: concentration in liver
[2] = male, C57BL/6, mouse, lung, intraperitoneal, lung, individual mice, read-out: concentration in lung
[3] = male, C57BL/6, mouse, pancreas, intraperitoneal, pancreas, individual mice, read-out: concentration in pancreas
[4] = male, C57BL/6, mouse, plasma, intraperitoneal, 2 mg/ml, plasma, individual mice, read-out: concentration in plasma
[5] = male, C57BL/6, mouse, whole blood, intraperitoneal, 2 mg/ml, blood, individual mice, read-out: concentration in blood

Which concentration at 0 min (male, C57BL/6, mouse, heart, intraperitoneal, heart, sample collection 0 min, individual mice, read-out: concentration in heart) does the source give for `CN1C(=O)C(Cc2c[nH]c3c(Cl)cccc23)NC1=S` (centres unmarked) [Nec-1f] here?
The concentration at 0 min was 0 ng/mL.

And the concentration at 120 min (male, C57BL/6, mouse, heart, intraperitoneal, heart, individual mice, read-out: concentration in heart)?
Its concentration at 120 min is 0 ng/mL.

And the concentration at 240 min (male, C57BL/6, mouse, kidney, intraperitoneal, 2 mg/kg, kidney, sample collection 240 min, individual mice, read-out: concentration in kidney)?
The concentration at 240 min was 0 ng/mL.

What about the concentration at 360 min (male, C57BL/6, mouse, kidney, intraperitoneal, 2 mg/kg, kidney, sample collection 360 min, individual mice, read-out: concentration in kidney) of the same compound?
Its concentration at 360 min is 0 ng/mL.

What about the concentration at 480 min (male, C57BL/6, mouse, kidney, intraperitoneal, 2 mg/kg, kidney, sample collection 480 min, individual mice, read-out: concentration in kidney) of the same compound?
The concentration at 480 min was 0 ng/mL.

What about the concentration at 1440 min (male, C57BL/6, mouse, kidney, intraperitoneal, 2 mg/kg, kidney, sample collection 1440 min, individual mice, read-out: concentration in kidney) of the same compound?
Its concentration at 1440 min is 0 ng/mL.

What about the concentration at 0 min (male, C57BL/6, mouse, kidney, intraperitoneal, 2 mg/ml, kidney, sample collection 0 min, individual mice, read-out: concentration in kidney) of the same compound?
The concentration at 0 min was 0 ng/mL.

What about the concentration at 120 min (male, C57BL/6, mouse, kidney, intraperitoneal, 2 mg/ml, kidney, individual mice, read-out: concentration in kidney) of the same compound?
The concentration at 120 min was 0 ng/mL.

And the concentration at 30 min (male, C57BL/6, mouse, kidney, intraperitoneal, 2 mg/ml, sample collection 30 min, individual mice)?
Its concentration at 30 min is 51 ng/mL.

What about the half-life (male, C57BL/6, mouse, kidney, ip, mice, single i.p. injection 2 mg/kg) of the same compound?
The half-life was 3.52 h.

What about the concentration at 240 min (male, C57BL/6, mouse, liver, intraperitoneal, 2 mg/kg, liver, sample collection 240 min, individual mice, read-out: concentration in liver) of the same compound?
The concentration at 240 min was 0 ng/mL.

And the concentration at 360 min (male, C57BL/6, mouse, liver, intraperitoneal, 2 mg/kg, liver, sample collection 360 min, individual mice, read-out: concentration in liver)?
The concentration at 360 min was 0 ng/mL.

What about the concentration at 480 min (male, C57BL/6, mouse, liver, intraperitoneal, 2 mg/kg, liver, sample collection 480 min, individual mice, read-out: concentration in liver) of the same compound?
Its concentration at 480 min is 0 ng/mL.

And the concentration at 1440 min (male, C57BL/6, mouse, liver, intraperitoneal, 2 mg/kg, liver, sample collection 1440 min, individual mice, read-out: concentration in liver)?
Its concentration at 1440 min is 0 ng/mL.

What about the concentration at 0 min (male, C57BL/6, mouse, liver, intraperitoneal, liver, sample collection 0 min, individual mice, read-out: concentration in liver) of the same compound?
Its concentration at 0 min is 0 ng/mL.

What about the concentration at 5 min [1] of the same compound?
The concentration at 5 min was 202 ng/mL.

What about the concentration at 15 min [1] of the same compound?
Its concentration at 15 min is 334 ng/mL.

What about the concentration at 120 min [1] of the same compound?
The concentration at 120 min was 0 ng/mL.

What about the concentration at 240 min (male, C57BL/6, mouse, lung, intraperitoneal, 2 mg/kg, lung, sample collection 240 min, individual mice, read-out: concentration in lung) of the same compound?
Its concentration at 240 min is 0 ng/mL.

And the concentration at 360 min (male, C57BL/6, mouse, lung, intraperitoneal, 2 mg/kg, lung, sample collection 360 min, individual mice, read-out: concentration in lung)?
The concentration at 360 min was 0 ng/mL.

And the concentration at 480 min (male, C57BL/6, mouse, lung, intraperitoneal, 2 mg/kg, lung, sample collection 480 min, individual mice, read-out: concentration in lung)?
The concentration at 480 min was 0 ng/mL.

What about the concentration at 0 min (male, C57BL/6, mouse, lung, intraperitoneal, lung, sample collection 0 min, individual mice, read-out: concentration in lung) of the same compound?
The concentration at 0 min was 0 ng/mL.

And the concentration at 5 min [2]?
The concentration at 5 min was 573 ng/mL.

What about the concentration at 60 min [2] of the same compound?
Its concentration at 60 min is 321 ng/mL.

What about the concentration at 120 min [2] of the same compound?
The concentration at 120 min was 50 ng/mL.

And the concentration at 1440 min (male, C57BL/6, mouse, lung, intraperitoneal, lung, sample collection 1440 min, individual mice, read-out: concentration in lung)?
Its concentration at 1440 min is 0 ng/mL.

And the concentration at 0 min (male, C57BL/6, mouse, pancreas, intraperitoneal, pancreas, sample collection 0 min, individual mice, read-out: concentration in pancreas)?
Its concentration at 0 min is 0 ng/mL.

What about the concentration at 5 min [3] of the same compound?
Its concentration at 5 min is 8950 ng/mL.

And the concentration at 15 min [3]?
Its concentration at 15 min is 35200 ng/mL.

What about the concentration at 120 min [3] of the same compound?
The concentration at 120 min was 490 ng/mL.

What about the concentration at 1440 min (male, C57BL/6, mouse, pancreas, intraperitoneal, pancreas, sample collection 1440 min, individual mice, read-out: concentration in pancreas) of the same compound?
Its concentration at 1440 min is 0 ng/mL.

And the concentration at 240 min (male, C57BL/6, mouse, plasma, intraperitoneal, 2 mg/kg, plasma, sample collection 240 min, individual mice, read-out: concentration in plasma)?
Its concentration at 240 min is 0 ng/mL.

What about the concentration at 360 min (male, C57BL/6, mouse, plasma, intraperitoneal, 2 mg/kg, plasma, sample collection 360 min, individual mice, read-out: concentration in plasma) of the same compound?
The concentration at 360 min was 0 ng/mL.

And the concentration at 480 min (male, C57BL/6, mouse, plasma, intraperitoneal, 2 mg/kg, plasma, sample collection 480 min, individual mice, read-out: concentration in plasma)?
The concentration at 480 min was 0 ng/mL.

What about the concentration at 1440 min (male, C57BL/6, mouse, plasma, intraperitoneal, 2 mg/kg, plasma, sample collection 1440 min, individual mice, read-out: concentration in plasma) of the same compound?
The concentration at 1440 min was 0 ng/mL.

And the concentration at 0 min (male, C57BL/6, mouse, plasma, intraperitoneal, 2 mg/ml, plasma, sample collection 0 min, individual mice, read-out: concentration in plasma)?
The concentration at 0 min was 0 ng/mL.

What about the concentration at 5 min [4] of the same compound?
Its concentration at 5 min is 0 ng/mL.

And the concentration at 60 min [4]?
Its concentration at 60 min is 19 ng/mL.

What about the concentration at 120 min [4] of the same compound?
The concentration at 120 min was 0 ng/mL.

What about the concentration at 240 min (male, C57BL/6, mouse, whole blood, intraperitoneal, 2 mg/kg, blood, sample collection 240 min, individual mice, read-out: concentration in blood) of the same compound?
Its concentration at 240 min is 0 ng/mL.

And the concentration at 360 min (male, C57BL/6, mouse, whole blood, intraperitoneal, 2 mg/kg, blood, sample collection 360 min, individual mice, read-out: concentration in blood)?
Its concentration at 360 min is 0 ng/mL.

What about the concentration at 480 min (male, C57BL/6, mouse, whole blood, intraperitoneal, 2 mg/kg, blood, sample collection 480 min, individual mice, read-out: concentration in blood) of the same compound?
The concentration at 480 min was 0 ng/mL.

What about the concentration at 0 min (male, C57BL/6, mouse, whole blood, intraperitoneal, 2 mg/ml, blood, sample collection 0 min, individual mice, read-out: concentration in blood) of the same compound?
The concentration at 0 min was 0 ng/mL.

What about the concentration at 5 min [5] of the same compound?
Its concentration at 5 min is 0 ng/mL.

And the concentration at 60 min [5]?
The concentration at 60 min was 0 ng/mL.

And the concentration at 120 min [5]?
The concentration at 120 min was 0 ng/mL.

And the concentration at 1440 min (male, C57BL/6, mouse, whole blood, intraperitoneal, 2 mg/ml, blood, sample collection 1440 min, individual mice, read-out: concentration in blood)?
Its concentration at 1440 min is 0 ng/mL.

And the concentration in pancreas (pancreas, sample collection 240 min, individual mice)?
The concentration in pancreas was 476 ng/mL and 7372 ng/mL and 2018 ng/mL.

What about the concentration in pancreas (pancreas, sample collection 360 min, individual mice) of the same compound?
The concentration in pancreas was 0 ng/mL and 1720 ng/mL and 911 ng/mL.

What about the concentration in pancreas (pancreas, sample collection 480 min, individual mice) of the same compound?
The concentration in pancreas was 0 ng/mL and 176 ng/mL and 625 ng/mL.

And the concentration in pancreas (pancreas, sample collection 1440 min, individual mice)?
The concentration in pancreas was 0 ng/mL.

What about the concentration in plasma (plasma, sample collection 0 min, individual mice) of the same compound?
The concentration in plasma was 0 ng/mL.

And the concentration in plasma (plasma, sample collection 240 min, individual mice)?
The concentration in plasma was 0 ng/mL.

What about the concentration in plasma (plasma, sample collection 360 min, individual mice) of the same compound?
Its concentration in plasma is 0 ng/mL.

And the concentration in plasma (plasma, sample collection 480 min, individual mice)?
The concentration in plasma was 0 ng/mL.

And the concentration in plasma (plasma, sample collection 1440 min, individual mice)?
The concentration in plasma was 0 ng/mL.
